Results as given in patent US11980620B2, “Compounds and methods for treatment of Diamond Blackfan anemia” (THE CHILDREN'S MEDICAL CENTER CORPORATION, priority 2017, dated 2024).

Key:
Type in all cases: cell-based, human
[1] = system: erythroid cells from CB CD34+; assay: Enucleation efficiency of GLYA+ cells at end of stage III; conditions: treatment during stages I-III; vehicle 2.4%±1.2
Description: (FIG. 12A) Erythroid differentiation of control and DBA CD34-5F cells treated with DMSO vehicle or SMER28 (10 μM) during the initial CD34^+ progenitor phase (day 0-4 of differentiation), or stage I of erythroid culture (day 4-9 of differentiation). Percent of erythroid cells after stage I of differentiation is indicated in top left for each condition, and quantitated in (FIG. 12B). Data are shown as mean f s.e.m. of 4 independent experiments, with 2 control and 4 DBA iPSCs. (FIG. 12C) Same as (FIG. 12A) for CB CD34+ cells transduced with shRPS19 hairpins. GFP^+ RPS19^sh and GFP^− control cells were quantitated separately. […] (FIG. 12D) RBC pellets at the end of stage III initiated with equal numbers of CD34-5F or CB progenitors. SMER28 was added at […]. (FIG. 12E) May-Grunwald-Giemsa stain of erythroid cells from CB CD34^+ at end of stage III. Arrows indicate enucleated RBCs, which are quantitated by flow cytometry. (FIG. 12F) Quantitation of the enucleation efficiency (left) of GLYA^+ cells. Data in FIGS. 12E-12F represents 3 independent experiments. For all panels, *p<0.05, **p<0.01.
Erythroblasts proliferate rapidly to give rise to terminally differentiated RBCs. […]

[2] = system: CB CD34+ RPS19sh cells; assay: Erythroid differentiation of CB CD34+ progenitors transduced with shRNAs for RPS19
Description: (§1) (FIG. 8A) The distribution of 1440 compounds by Z-score in a proliferation-based screen of the Sigma LOPAC chemical library. DBA CD34-5F cells were plated in erythroid-promoting conditions in 384-well format. Erythroid proliferation was measured in the presence of 5 μM of each compound, and converted into Z-scores. The screen was carried out with 3 RPS19 DBA and 2 normal iPSC lines. (FIG. 88) Dose-dependent effect of SMER28 (in μM) on erythroid differentiation, shown as the absolute number of erythroid cells in each drug-treated condition normalized to vehicle (DMSO) control. Erythroid cells were analyzed on day 9 of differentiation using markers CD71 and GlyA. […] (FIG. 8C) Absolute number of erythroid cells (analyzed on day 9) in each drug-treated condition normalized to vehicle (DMSO) control (4 independent experiments). […]
(§2) (FIG. 12A) Erythroid differentiation of control and DBA CD34-5F cells treated with DMSO vehicle or SMER28 (10 μM) during the initial CD34^+ progenitor phase (day 0-4 of differentiation), or stage I of erythroid culture (day 4-9 of differentiation). Percent of erythroid cells after stage I of differentiation is indicated in top left for each condition, and quantitated in (FIG. 12B). […] GFP^+ RPS19^sh and GFP^− control cells were quantitated separately. […] Arrows indicate enucleated RBCs, which are quantitated by flow cytometry. […]

[3] = system: control iPSCs; assay: Erythroid differentiation (CD71+GlyA+) of CD34-5F cells from control iPSCs
Description: as §1, §2

For `C=CCNc1ncnc2ccc(Br)cc12` [SMER28, 6-Bromo-N-2-propenyl-4-quinazolinam], the efficiency of enucleation [1] was 5.6%±1.6, the “erythroid output of RPS19sh cells” value ([2]; dose curve, highest activity at lower doses) was “robustly increased” and the erythroid output ([2]; treatment of undifferentiated CD34+ RPS19sh cells) was “sufficient to improve erythroid output”. The “effect on number of erythroid cells normalized to vehicle” value [3] was 2.5 fold and the EC50 ([3]; Homo sapiens, iPSC, read-out: EC50, number of erythroid cells) was 1.6 µM.
